Results from patent publication US20030113330A1, “Methods for treating pulmonary fibrosis” (priority 1999, published 2003).
Where no end group is shown, it is not given here. The star is where a group is joined. CH2Cl = ClC*; CH2F = FC*

Key:
[1] = system: primary alveolar epithelial cells (AEC); assay: Bleomycin-induced apoptosis of primary AEC in vitro
Experimental: (§1) Lung Cell Isolation and Detection of Apoptosis In Vitro. Primary alveolar epithelial cells (AEC) were isolated from adult male Wistar rats as described above. The primary cells were studied at day two of culture, a time at which they are type II cell-like by accepted morphologic and biochemical criteria, see Paine et al., Am. J. Physiol. […] All cells were seeded in 24-well or 6-well chambers, and all experiments were conducted at subconfluent densities of 80-90% in serum-free Ham's F12 medium. Test reagents were diluted with Ham's F12 medium and were applied for 20 hours at 37° C. in a 5% CO2 incubator.
(§2) Detection of apoptotic cells with propidium iodide (PI) was conducted as described above, following digestion of ethanol-fixed cells with DNAse-free RNAse in PBS containing 5 ug/ml PI.
Apoptosis was detected as described above.

primary rat AEC [2] = assay: Angiotensin II-induced apoptosis in primary rat AEC (nuclear fragmentation, PI); assay type: cell-based; conditions: ANGII 5.0 uM; saralasin 50 ug/ml, lisinopril 500 ng/ml
Excerpt: Cell Culture. The human lung adenocarcinoma cell line A549 was obtained from American Type Culture Collection and cultured in Ham's F12 medium supplemented with 10% fetal bovine serum (FBS). Primary alveolar epithelial cells were isolated from adult male Wistar rats as described in Uhal et al., Am. J. Physiol. Suppl. (Oct.) 261:110-117 (1991) and Uhal et al., Am. J. Physiol. 269:L819-L828 (1995). The primary cells were studied at day two of culture, a time at which they are type II cell-like by accepted morphologic and biochemical criteria, see Uhal, Am. J. Physiol. 272:L1031-L1045 (1997). […] J. Physiol. Suppl. (October) 261:110-117 (1991). All cells were seeded in 24-well or 6-well chambers, and all experiments were conducted at subconfluent densities of 80-90% in serum-free Ham's F12 medium. Test reagents were diluted with Ham's F12 medium and were applied for 20 h at 37° C. in a 5% CO2 incubator.
Detection of Apoptosis. Detection of apoptotic cells with propidium iodide (PI) was conducted as described in Uhal, et al., Am. J. Physiol. 275:L1013-1017 (1998) following digestion of ethanol-fixed cells with DNAse-free RNAse in PBS containing 5 ug/ml PI. Assay of Annexin V binding by flow cytometry was performed essentially as described for human lung fibroblasts in Uhal, et al., Am. J. Physiol. 275:L998-L1005 (1998) after trypsinization of cells from culture vessels. Assay of Caspase-3 activity was performed on viable suspension cultures as reported in Uhal, et al., Am. J. Physiol. 275:L1013-1017 (1998). In all assays, detached cells were retained by centrifugation of the culture vessels during fixation with 70% ethanol, or by retention of culture media and recovery by centrifugation before assay.
For microscopy, cells were cultured on glass cover slips, incubated with test reagents and fixed with 70% ethanol. The fixed cells were immunolabeled overnight at 4° C. with monoclonal antibodies to cytokeratins 7 and 19 (Chemicon International, Temecula, Calif.), and then for one hour at 37° C. with anti-mouse IgG-rhodamine and DNAse-free RNAse (Boehringer Mannheim, Indianapolis, Ind.) The cover slips were then rinsed in distilled water three times and mounted under Fluoromount Solution (Southern Biotechnology Associates, Birmingham, Ala.) containing 5 ug/ml propidium iodide. Photomicroscopy was performed as described in Uhal, et al., Am. J. Physiol. 275:L1013-1017 (1998).
Apoptosis in alveolar epithelial cells was quantitated by fluorescence detection of chromatin condensation and nuclear fragmentation in alcohol-fixed cells stained with propidium iodide. See Uhal, et al., Am. J. Physiol. 275:L1013-1017 (1998). […] After 20 h, the culture vessel was centrifuged to retain detached cells and labeled with anticytokeratin antibodies and propidium iodide. […] Double labeling with PI and monoclonal antibodies to cytokeratins 7 and 19 identified cells with both apoptotic nuclear morphology and positive anticytokeratin immunoreactivity.

primary rat AEC [3] = conditions: for inhibition of amiodarone-induced apoptosis: captopril 500 ng/ml, saralasin 50 ug/ml, Losartan 5 pg/ml, amiodarone 2.5 ug/ml for chelerythrine, orthovanadate
Experimental: (§3) The human lung adenocarcinoma cell line A549 (ATCC) was cultured in Ham's F12 medium supplemented with 10% fetal bovine serum (FBS). Primary alveolar epithelial cells were isolated from adult male Wistar rats. The primary cells were studied at day two of culture, a time at which they are type II cell-like by accepted morphologic and biochemical criteria. […] All cells were seeded in 24-well or 6-well chambers, and all experiments were conducted at subconfluent densities of 80-90% in serum-free Ham's F12 medium. Test reagents were diluted with Ham's F12 medium and were applied for 20 hours at 37C. in a 5% CO2 incubator.
(§4) Apoptotic cells were detected using propidium iodide (PI) following digestion of ethanol-fixed cells with DNAse-free RNAse in PBS containing 5 ug/ml PI. […] In replicate culture vessels, necrosis was detected as the loss of exclusion of PI after application of the vital dye directly to the cell culture medium at 5 ug/ml final concentration. Red fluorescent (PI-POSITIVE) cells (>570 nm) were scored over the subsequent hour as a percentage of the total cells in any given field. A minimum of 4 separate fields were scored in each of three separate culture vessels per experiment condition; all experiments were performed at least twice and the data were compiled. Although all necrotic cells are PI-positive, some apoptotic cells may also take up the dye but these comprise a minor fraction of the total dead cell population.
(§5) In all assays, detached cells were retained by centrifugation of the culture vessel at 300×g for 10 minutes with a centrifuge rotor designed for culture plates. For detection of necrosis (dye exclusion of PI), the PI was added directly to the cell culture medium immediately before centrifugation of the culture vessel. For detection of apoptosis, ethanol was added directly to the cell culture medium to a final concentration of 70% immediately before the centrifugation. Afterward, the ethanol was carefully removed and the total cell population (attached plus sedimented detached cells) were stained with PI as described above.

A549 cells [4] = assay: Amiodarone-induced net cell loss in A549 cultures; assay type: cell-based, human; conditions: 20 hours exposure
Experimental: (§6) Primary alveolar epithelial cells were isolated from adult male Wistar rats. The primary cells were studied at day two of culture, a time at which they are type II cell-like by accepted morphologic and biochemical criteria. All primary cell preparations were of better than 90% purity assessed by acridine orange staining. All cells were seeded in 24-well or 6-well chambers, and all experiments were conducted at subconfluent densities of 80-90% in serum-free Ham's F12 medium. Test reagents were diluted with Ham's F12 medium and were applied for 20 hours at 37C. in a 5% CO2 incubator.
(§7) Importantly, unattached cells were recovered and included in the analyses, and thus the data represent true loss of cells rather than simple detachment from the substratum.

[5] = system: primary cultures of rat AEC; assay type: cell-based; conditions: male, Wistar, rat, 20 h
Experimental: (§8) The human lung adenocarcinoma cell line A549 (ATCC) was cultured in Ham's F12 medium supplemented with 10% fetal bovine serum (FBS). Primary alveolar epithelial cells were isolated from adult male Wistar rats. The primary cells were studied at day two of culture, a time at which they are type II cell-like by accepted morphologic and biochemical criteria. All primary cell preparations were of better than 90% purity assessed by acridine orange staining. All cells were seeded in 24-well or 6-well chambers, and all experiments were conducted at subconfluent densities of 80-90% in serum-free Ham's F12 medium. Test reagents were diluted with Ham's F12 medium and were applied for 20 hours at 37C. in a 5% CO2 incubator.

A549 cells [6] = conditions: human, 20 h
Experimental: as §3, §4, §5

primary rat AEC [7] = assay: Amiodarone-induced net cell loss in primary rat AEC cultures; assay type: cell-based; conditions: 20 hours exposure
Experimental: as §6, §7

human A549 cells = assay type: cell-based; conditions: human, 20 h
Experimental: as §8
Apoptotic cells were detected using propidium iodide (PI) following digestion of ethanol-fixed cells with DNAse-free RNAse in PBS containing 5 ug/ml PI. […] In replicate culture vessels, necrosis was detected as the loss of exclusion of PI after application of the vital dye directly to the cell culture medium at 5 ug/ml final concentration. Red fluorescent (PI-POSITIVE) cells (>570 nm) were scored over the subsequent hour as a percentage of the total cells in any given field. A minimum of 4 separate fields were scored in each of three separate culture vessels per experiment condition; all experiments were performed at least twice and the data were compiled. […]

primary rat AEC [8] = assay: Fas ligand-induced apoptosis of primary rat alveolar epithelial cells; assay type: cell-based; conditions: captopril, lisinopril 500 ng/ml; caspase inhibitors 60 uM
Experimental: as §1, §2
Expression of FAS by alveolar epithelial cells is observed during bleomycin-induced fibrogenesis in mice. See Hagimoto, et al., Am. J. Respir. Cell Mol. Biol. 16:91-101 (1997). […] Apoptosis was detected by quantitation of fragmented nuclei (see above).
Cell Culture and Detection of Apoptosis. The human lung adenocarcinoma cell line A549 was obtained from American Type Culture Collection and cultured in Ham's F12 medium supplemented with 10% fetal bovine serum (FBS). Primary alveolar epithelial cells were isolated from adult male Wistar rats as described earlier (Uhal, B. D., I. Joshi, A. True, S. Mundle, A. Raza, A. Pardo and M. Selman. Fibroblasts isolated after fibrotic lung injury induce apoptosis of alveolar epithelial cells in vitro. Am. J. Physiol. 269:L819-L828, 1995); Wang, R., A. Zagariya, 0. Ibarra-Sunga, C. […] Am. J. Physiol. 276:L885-L889 (1999)). […] All cells were seeded in 24-well or 6-well chambers, and all experiments were conducted at subconfluent densities of 80-90% in serum-free Ham's F12 medium. Test reagents were diluted with serum-free Ham's F12 medium and were applied under serum-free conditions for 20 hours at 37C. in a 5% CO2 incubator. Detection of apoptotic cells with propidium iodide (PI) was conducted as described above Am. J. Physiol. 275:L1013-1017 (1998); Uhal et al., following digestion of ethanol-fixed cells with DNAse-free RNAse in PBS containing 5 μg/ml PI. In all assays, detached cells were retained by centrifugation of the culture vessels during fixation with 70% ethanol, or by retention of culture media and recovery by centrifugation before assay.
Apoptosis was detected by nuclear fragmentation as described above.

[9] = system: primary rat alveolar epithelial cells; assay: Apoptosis of rat AEC induced by human lung fibroblast-conditioned media; assay type: cell-based; conditions: saralasin 50 ug/ml, DEVD-fmk 60 uM, anti-ANGII IgG 1 ug/ml
Excerpt: Fibroblast Isolation, Culture and Preparation of Conditioned Media. Primary human lung fibroblasts were isolated at the National Institute of Respiratory Diseases, Mexico. […] Of these, “fibrotic” lung fibroblast strains (HIPF-X, where X=patient number) were derived from patients suffering from either of two different types of interstitial lung disease (ILD): Idiopathic Pulmonary Fibrosis (IPF) and Chronic Hypersensitivity Pneumonitis (CHP). In both diseases, patients had clinical, functional and radiologic features which fulfill the diagnostic criteria for an ILD. […] Briefly, all patients had progressive dyspnea, bilateral reticulonodular images on chest roentgenogram, restrictive lung functional impairment with decreased lung volumes and compliance, and hypoxemia at rest that worsened with exercise. […] Patients with IPF had neither antecedents of any occupational or environmental exposure nor other known cause of ILD. […] Biopsies lacked granulomas, vasculitis, microorganisms, and inorganic material by polarized light microscopy.
Control fibroblasts were obtained from individuals having undergone a lobectomy for removal of a primary lung tumor. […] Lung fibroblasts from normal or fibrotic tissue were isolated by trypsin dispersion, and fibroblast strains were established in Dulbecco's modified Eagle's medium (or in Ham's F-12 medium) supplemented with 10% fetal calf serum, 200 U/ml penicillin, and 200 mg/ml streptomycin. […]
Epithelial Cell Culture and Detection of Apoptosis. […] All epithelial cell preparations were greater than 90% pure as determined by acridine orange uptake into lamellar bodies. […] Epithelial cell apoptosis was detected by the assessment, under fluorescence microscopy, of chromatin condensation and nuclear fragmentation within cytokeratin-positive cells after ethanol fixation and staining with propidium iodide. […]
The percentage increase in rat AEC apoptosis was determined by propidium iodide assay of primary alveolar epithelial cells exposed to serum-free conditioned media, see Uhal et al., Am.

adult male Wistar rats = conditions: 8 U/kg intratracheal, 14 days
Experimental: Adult male Wistar rats were given intratracheal instillations of 8 U/kg bleomycin sulfate (BLEO) or sterile saline. […] Lung fibrosis was assessed by picrosirius red (PR) quantitation of lung collagen and by hydroxyproline (HP) assay at 14 days after BLEO administration. At the same time point, fragmented DNA in lung epithelial cells was detected by in situ end labeling (ISEL).
Animals and Induction of Pulmonary Fibrosis. Forty adult male Wistar rats, 175-200 grams, were divided into four groups; three groups received a single intratracheal instillation of 8 units per kilogram of bleomycin sulfate (BLEO) in sterile saline. Two days before the administration of BLEO, one group received captopril in the drinking water at a concentration of 500 mg/liter. […] Control animals (NORM) received administrations of the vehicles only.
Immediately before sacrifice, animals were given intraperitoneal injections of sodium pentobarbital and the trachea was cannulated. The middle right lobe was ligated at the hilus, was excised distal to the ligation and was immediately frozen in liquid N2 for hydroxyproline assay of total collagen (see below). The remaining lung tissues were carefully removed and were instilled with 4% paraformaldehyde in PBS at 20 cm H2O constant pressure, then immersed in the same fixative for two hours. The fixed tissues were washed with PBS three times for 15 minutes and were then embedded in paraffin. Five-micron sections of lung were deparaffinized by passing through xylene, xylene:alcohol 1:1, 100% alcohol and 70% alcohol for 10 minutes each. Ethanol was removing by rinsing with distilled water.
In situ end-labeling (ISEL) of fragmented DNA. ISEL was conducted by a modification of the method of Mundle et al., Cell Death and Differentiation, 1: 117-122 (1994). Briefly, ethanol was removed from deparaffinized lung sections by rinsing in distilled water for at least 10 minutes. The slides were then placed in 3% hydrogen peroxide (Sigma Chemical, St. Louis, Mo.) for 30 minutes at 20° C., rinsed with PBS, and incubated with Proteinase K (Sigma Chemical, St. Louis, Mo.) in saline sodium citrate solution (SSC) (0.3 M NaCi and 30 mM sodium citrate in water, pH 7.0) for 15 minutes at 37° C. Samples were rinsed once in water, three times in 0.15 M PBS for 4 minutes each, and then incubated in SSC at 80° C. for 20 minutes. After four rinses in PBS and four rinses in Buffer A (50 mM Tris/HCl, 5 mM MgCl, 10 mM β-mercaptoethanol and 0.005% BSA in water, pH 7.5), the sections were incubated at 18° C. for two hours with ISEL solution (0.001 mM digoxigenin-dUTP, 20 U/ml DNA Polymerase 1 and 0.01 mM each of dATP, dCTP and dGTP in Buffer A). The sections were then rinsed thoroughly five times with Buffer A and three times with PBS. Detection of incorporated dUTP was achieved by incubation for two hours at 37° C. with AP-conjugated anti-digoxigenin (Boerhinger Mannheim, Indianapolis, Ind.) at a 1:400 dilution. Bound AP-antibody complexes were detected with the Fast Blue chromogen system and the sections were mounted with Fluoromount Solution (Southern Biotechnology, Birmingham, Ala.).
Identification of Collagen. Collagens were localized through staining of lung sections by the picrosirius red technique, see Pick et al., Am. J. Pathol. 134:365-371 (1989), which has absolute specificity for collagen. Briefly, sections deparaffinized with xylenes were rehydrated through a descending series of ethanols to distilled water. The hydrated sections were immersed in 0.2% aqueous phosphomolybdic acid for 2 minutes, rinsed in distilled water and then stained for 110 minutes with 0.1% Sirius Red F3BA (Pfal and Bauer, Stamford, Conn.) in saturated aqueous picric acid, pH 2.0. The sections were washed for 2 minutes in 0.01 N HCl, rinsed for 45 seconds in 70% ethanol, dehydrated in three changes of absolute alcohol, cleared in xylene and mounted in a nonaqueous mounting medium.

Q: With `O=C(O)C1=CC(=C(c2ccc(O)c(C(=O)O)c2)c2ccc(O)c(C(=O)O)c2)C=CC1=O` [aurintricarboxylic acid] as the molecule, how does the inhibition at 10 µM ([1]; Rattus norvegicus, Epithelial cell, read-out: inhibition of bleomycin-induced apoptosis of AEC in vitro) read?
A: 59%

Q: For `COc1ccc2c(c[n+](C)c3c4cc5c(cc4ccc23)OCO5)c1OC` [chelerythrine], which “inhibition of ANGII-induced apoptosis of primary rat AEC” value (primary rat AEC [2]) is on record?
A: significantly inhibited

Q: And the “inhibition of amiodarone-induced apoptosis” value (primary rat AEC [3])?
A: significantly inhibited

Q: With `CCCCc1oc2ccccc2c1C(=O)c1cc(I)c(OCCNCC)c(I)c1` [desethylamiodarone] as the molecule, how does the “effect on total cell number” value (A549 cells [4]) read?
A: significantly decreased

Q: What about the “concentration at which significant cell death / toxicity begins” value [5] of the same molecule?
A: 100 ng/mL

Q: What about the “cytotoxicity at the higher doses” value [5] of the same molecule?
A: ~100%

Q: What about the “concentration at which significant apoptosis begins” value (primary rat AEC [3]; male, Wistar, rat, 20 h) of the same molecule?
A: 2500 ng/mL

Q: And the “concentration at which apoptosis begins” value (A549 cells [6])?
A: 5000 ng/mL

Q: What about the “effect on total cell number” value (primary rat AEC [7]) of the same molecule?
A: significantly decreased

Q: And the “concentration at which necrosis / significant cell death begins” value (human A549 cells)?
A: 5000 ng/mL

Q: `[Na+].[Na+].[Na+].[O]=[V]([O-])([O-])[O-]` [sodium orthovanadate] was tested. Which “inhibition of amiodarone-induced apoptosis” value (primary rat AEC [3]) did it give?
A: not

Q: With “Asp-Glu-Val-Asp-[O-Me]-CH2F (DEVD(OMe)-CH2F; not fully specified; printed as Asp-Glu-Val-Asp-[O-Me]-CH2F) [DEVD-fmk]” as the molecule, how does the “inhibition of Fas ligand-induced apoptosis of primary rat AEC (words)” value (primary rat AEC [8]) read?
A: comparable efficacy to inhibit apoptosis

Q: And the “inhibition of apoptosis induced by HIPF-conditioned media” value [9]?
A: completely abrogated

Q: For “Tyr-Val-Ala-Asp-[O-Me]-CH2Cl (YVAD(OMe)-CH2Cl; not fully specified; printed as Tyr-Val-Ala-Asp-[O-Me]-CH2Cl) [YVAD-cmk]”, which “inhibition of Fas ligand-induced apoptosis of primary rat AEC (words)” value (primary rat AEC [8]) is on record?
A: comparable efficacy to inhibit apoptosis

Q: Which results are given for bleomycin sulfate?
A: increase in alveolar septal collagen (picrosirius red) (adult male Wistar rats): 100%; increase in peribronchial collagen (picrosirius red) (adult male Wistar rats): 133%; concentration at which induction of apoptosis was statistically significant ([1]; 20 h): 5 µM
